Tests used:
[1] = system: antibodies in sera from SARS patients (sera 1a, 1b, 2, 6, 37, 62, London, SARS-yellow, SARS-green); type: binding, human; design: Binding of serum 6 to linear peptides of protein X1 of SARS-CoV Urbani / Binding of serum 37 to linear peptides of protein X1 of SARS-CoV Urbani / Binding of serum 6 to looped/cyclic peptide (PEPSCAN-ELISA) / Binding of serum 37 to looped/cyclic peptide (PEPSCAN-ELISA) / Binding of serum 37 to looped/cyclic peptides of protein X1 of SARS-CoV Urbani / Binding of serum 6 to linear peptides of protein X2 / Binding of serum 37 to linear peptides of protein X2 / Binding of serum 37 to looped/cyclic peptides of protein X2 of SARS-CoV Urbani / Binding of serum 6 to linear peptides of protein M of SARS-CoV Urbani / Binding of serum 37 to linear peptides of protein M of SARS-CoV Urbani / Binding of serum 6 to looped/cyclic peptides of protein M of SARS-CoV Urbani / Binding of serum 37 to looped/cyclic peptides of protein M of SARS-CoV Urbani / Binding of serum 6 to linear peptides of protein X3 of SARS-CoV Urbani / Binding of serum 37 to linear peptides of protein X3 of SARS-CoV Urbani / Binding of serum 37 to looped/cyclic peptides of protein X3 of SARS-CoV Urbani / Binding of serum 6 to linear peptides of protein X4 of SARS-CoV Urbani / Binding of serum 37 to linear peptides of protein X4 of SARS-CoV Urbani / Binding of serum 37 to looped/cyclic peptides of protein X4 of SARS-CoV Urbani / Binding of serum 6 to linear peptides of protein X5 of SARS-CoV Urbani / Binding of serum 37 to linear peptides of protein X5 of SARS-CoV Urbani / Binding of serum 37 to looped/cyclic peptides of protein X5 of SARS-CoV Urbani / Binding of serum 6 to linear peptides of protein N of SARS-CoV Urbani / Binding of serum 37 to linear peptides of protein N of SARS-CoV Urbani / Binding of serum 6 to linear peptide (PEPSCAN-ELISA) / Binding of serum 1a to looped/cyclic peptides of protein N of SARS-CoV Urbani / Binding of serum 1b to looped/cyclic peptides of protein N of SARS-CoV Urbani / Binding of serum 2 to looped/cyclic peptides of protein N of SARS-CoV Urbani / Binding of serum 6 to looped/cyclic peptides of protein N of SARS-CoV Urbani / Binding of serum 37 to looped/cyclic peptides of protein N of SARS-CoV Urbani / Binding of serum 62 to looped/cyclic peptides of protein N of SARS-CoV Urbani / Binding of serum London to looped/cyclic peptides of protein N of SARS-CoV Urbani / Binding of serum SARS-green to looped/cyclic peptides of protein N of SARS-CoV Urbani: unit not given here
[2] = system: control sera (pooled serum of ten healthy LUMC hospital workers; commercial negative donor pooled serum from the Dutch bloodbank); type: binding, human; design: Binding of Control serum LUMC to linear peptides / Binding of Control serum Blood-bank to linear peptides / Binding of Control serum LUMC to looped peptides / Binding of Control Serum Blood-Bank to Looped peptides / Binding of Control serum LUMC to linear peptides of the protein M of SARS-CoV Urbani / Binding of Control serum Blood-bank to linear peptides of the protein M of SARS-CoV Urbani / Binding of Control serum LUMC to looped peptides of the protein M of SARS-CoV Urbani / Binding of Control Serum Blood-Bank to Looped peptides of the protein M of SARS-CoV Urbani: unit not given here
[3] = system: rabbit serum obtained by immunizing a rabbit with the SARS-CoV strain Frankfurt 1; type: binding; design: Binding of a rabbit serum to linear peptides / Binding of a rabbit serum to looped peptides / Rabbit serum linear peptides / Rabbit serum looped peptides / Binding of a rabbit serum to linear peptides of protein N of SARS-CoV Urbani (Rabbit serum linear peptides) / Binding of a rabbit serum to looped/cyclic peptides of protein N of SARS-CoV Urbani (Rabbit serum looped peptides): unit not given here

KEPCPSGTYEGNSPF
Binding of serum 1a to linear peptides of protein X4 of SARS-CoV Urbani [1]: 0.7 | Binding of serum 1a to looped/cyclic peptides of protein X4 of SARS-CoV Urbani [1]: 0.8 | Binding of serum 1b to linear peptides of protein X4 of SARS-CoV Urbani [1]: 0.6 | Binding of serum 1b to looped/cyclic peptides of protein X4 of SARS-CoV Urbani [1]: 0.6 | Binding of serum 2 to linear peptides of protein X4 of SARS-CoV Urbani [1]: 0.4 | Binding of serum 2 to looped/cyclic peptides of protein X4 of SARS-CoV Urbani [1]: 0.6 | Binding of serum 6 to linear peptides of protein X4 of SARS-CoV Urbani [1]: 0.4 | Binding of serum 6 to looped/cyclic peptides of protein X4 of SARS-CoV Urbani [1]: 0.6 | Binding of serum 37 to linear peptides of protein X4 of SARS-CoV Urbani [1]: 0.7 | Binding of serum 37 to looped/cyclic peptides of protein X4 of SARS-CoV Urbani [1]: 0.7 | Binding of serum 62 to linear peptides of protein X4 of SARS-CoV Urbani [1]: 0.8 | Binding of serum 62 to looped/cyclic peptides of protein X4 of SARS-CoV Urbani [1]: 0.6 | Binding of serum London to linear peptides of protein X4 of SARS-CoV Urbani [1]: 0.8 | Binding of serum London to looped/cyclic peptides of protein X4 of SARS-CoV Urbani [1]: 0.3 | Binding of serum SARS-green to linear peptides of protein X4 of SARS-CoV Urbani [1]: 0.6 | Binding of serum SARS-green to looped/cyclic peptides of protein X4 of SARS-CoV Urbani [1]: 0.4 | Binding of serum SARS-yellow to linear peptides of protein X4 of SARS-CoV Urbani [1]: 0.7 | Binding of serum SARS-yellow to looped/cyclic peptides of protein X4 of SARS-CoV Urbani [1]: 0.3 | Binding of Control Serum Blood-Bank to Looped peptides [2]: 0.5 | Binding of Control serum Blood-bank to linear peptides [2]: 0.6 | Binding of Control serum LUMC to linear peptides [2]: 0.6 | Binding of Control serum LUMC to looped peptides [2]: 0.8 | Rabbit serum linear peptides [3]: 0.4 | Rabbit serum looped peptides [3]: 0.3

YMAISPKFTTSLSLH
Binding of serum 1a to linear peptides of protein X2 [1]: 0.7 | Binding of serum 1a to looped/cyclic peptides of protein X2 of SARS-CoV Urbani [1]: 0.6 | Binding of serum 1b to linear peptides of protein X2 [1]: 0.6 | Binding of serum 1b to looped/cyclic peptides of protein X2 of SARS-CoV Urbani [1]: 0.6 | Binding of serum 2 to linear peptides of protein X2 [1]: 0.4 | Binding of serum 2 to looped/cyclic peptides of protein X2 of SARS-CoV Urbani [1]: 0.4 | Binding of serum 6 to linear peptides of protein X2 [1]: 0.4 | Binding of serum 6 to looped/cyclic peptides of protein X2 of SARS-CoV Urbani [1]: 0.5 | Binding of serum 37 to linear peptides of protein X2 [1]: 0.6 | Binding of serum 37 to looped/cyclic peptides of protein X2 of SARS-CoV Urbani [1]: 0.5 | Binding of serum 62 to linear peptides of protein X2 [1]: 0.6 | Binding of serum 62 to looped/cyclic peptides of protein X2 of SARS-CoV Urbani [1]: 0.6 | Binding of serum London to linear peptides of protein X2 [1]: 0.4 | Binding of serum London to looped/cyclic peptides of protein X2 of SARS-CoV Urbani [1]: 0.4 | Binding of serum SARS-green to linear peptides of protein X2 [1]: 0.5 | Binding of serum SARS-green to looped/cyclic peptides of protein X2 of SARS-CoV Urbani [1]: 0.4 | Binding of serum SARS-yellow to linear peptides of protein X2 [1]: 0.6 | Binding of serum SARS-yellow to looped/cyclic peptides of protein X2 of SARS-CoV Urbani [1]: 0.4 | Binding of Control Serum Blood-Bank to Looped peptides [2]: 0.7 | Binding of Control serum Blood-bank to linear peptides [2]: 0.7 | Binding of Control serum LUMC to linear peptides [2]: 0.4 | Binding of Control serum LUMC to looped peptides [2]: 0.7 | Binding of a rabbit serum to linear peptides [3]: 0.3 | Binding of a rabbit serum to looped peptides [3]: 0.5

GNTYSTAWLCALGKV
Binding of serum 1a to linear peptides of protein X5 of SARS-CoV Urbani [1]: 0.8 | Binding of serum 1a to looped/cyclic peptides of protein X5 of SARS-CoV Urbani [1]: 0.4 | Binding of serum 1b to linear peptides of protein X5 of SARS-CoV Urbani [1]: 0.6 | Binding of serum 1b to looped/cyclic peptides of protein X5 of SARS-CoV Urbani [1]: 0.2 | Binding of serum 2 to linear peptides of protein X5 of SARS-CoV Urbani [1]: 0.9 | Binding of serum 2 to looped/cyclic peptides of protein X5 of SARS-CoV Urbani [1]: 0.5 | Binding of serum 6 to linear peptides of protein X5 of SARS-CoV Urbani [1]: 0.6 | Binding of serum 6 to looped/cyclic peptides of protein X5 of SARS-CoV Urbani [1]: 0.3 | Binding of serum 37 to linear peptides of protein X5 of SARS-CoV Urbani [1]: 0.7 | Binding of serum 37 to looped/cyclic peptides of protein X5 of SARS-CoV Urbani [1]: 0.5 | Binding of serum 62 to linear peptides of protein X5 of SARS-CoV Urbani [1]: 0.8 | Binding of serum 62 to looped/cyclic peptides of protein X5 of SARS-CoV Urbani [1]: 0.7 | Binding of serum London to linear peptides of protein X5 of SARS-CoV Urbani [1]: 0.7 | Binding of serum London to looped/cyclic peptides of protein X5 of SARS-CoV Urbani [1]: 0.2 | Binding of serum SARS-green to linear peptides of protein X5 of SARS-CoV Urbani [1]: 0.6 | Binding of serum SARS-green to looped/cyclic peptides of protein X5 of SARS-CoV Urbani [1]: 0.3 | Binding of serum SARS-yellow to linear peptides of protein X5 of SARS-CoV Urbani [1]: 0.4 | Binding of serum SARS-yellow to looped/cyclic peptides of protein X5 of SARS-CoV Urbani [1]: 0.5 | Binding of Control Serum Blood-Bank to Looped peptides [2]: 0.4 | Binding of Control serum Blood-bank to linear peptides [2]: 0.9 | Binding of Control serum LUMC to linear peptides [2]: 0.5 | Binding of Control serum LUMC to looped peptides [2]: 0.6 | Rabbit serum linear peptides [3]: 0.9 | Rabbit serum looped peptides [3]: 0.6

MCKYTQSTALQELLI
Binding of serum 1a to linear peptides of protein X2 [1]: 0.8 | Binding of serum 1a to looped/cyclic peptides of protein X2 of SARS-CoV Urbani [1]: 0.6 | Binding of serum 1b to linear peptides of protein X2 [1]: 0.7 | Binding of serum 1b to looped/cyclic peptides of protein X2 of SARS-CoV Urbani [1]: 0.6 | Binding of serum 2 to linear peptides of protein X2 [1]: 0.6 | Binding of serum 2 to looped/cyclic peptides of protein X2 of SARS-CoV Urbani [1]: 0.5 | Binding of serum 6 to linear peptides of protein X2 [1]: 0.5 | Binding of serum 6 to looped/cyclic peptides of protein X2 of SARS-CoV Urbani [1]: 0.3 | Binding of serum 37 to linear peptides of protein X2 [1]: 0.6 | Binding of serum 37 to looped/cyclic peptides of protein X2 of SARS-CoV Urbani [1]: 0.7 | Binding of serum 62 to linear peptides of protein X2 [1]: 0.8 | Binding of serum 62 to looped/cyclic peptides of protein X2 of SARS-CoV Urbani [1]: 0.8 | Binding of serum London to linear peptides of protein X2 [1]: 0.5 | Binding of serum London to looped/cyclic peptides of protein X2 of SARS-CoV Urbani [1]: 0.2 | Binding of serum SARS-green to linear peptides of protein X2 [1]: 0.8 | Binding of serum SARS-green to looped/cyclic peptides of protein X2 of SARS-CoV Urbani [1]: 0.7 | Binding of serum SARS-yellow to linear peptides of protein X2 [1]: 0.7 | Binding of serum SARS-yellow to looped/cyclic peptides of protein X2 of SARS-CoV Urbani [1]: 0.4 | Binding of Control Serum Blood-Bank to Looped peptides [2]: 0.8 | Binding of Control serum Blood-bank to linear peptides [2]: 0.9 | Binding of Control serum LUMC to linear peptides [2]: 0.7 | Binding of Control serum LUMC to looped peptides [2]: 0.7 | Binding of a rabbit serum to linear peptides [3]: 0.2 | Binding of a rabbit serum to looped peptides [3]: 0.4

GFAAYNRYRIGNYKL
Binding of serum 1a to linear peptides of protein M of SARS-CoV Urbani [1]: 0.6 | Binding of serum 1a to looped/cyclic peptides of protein M of SARS-CoV Urbani [1]: 0.7 | Binding of serum 1b to linear peptides of protein M of SARS-CoV Urbani [1]: 0.4 | Binding of serum 1b to looped/cyclic peptides of protein M of SARS-CoV Urbani [1]: 0.2 | Binding of serum 2 to linear peptides of protein M of SARS-CoV Urbani [1]: 0.4 | Binding of serum 2 to looped/cyclic peptides of protein M of SARS-CoV Urbani [1]: 0.6 | Binding of serum 6 to linear peptides of protein M of SARS-CoV Urbani [1]: 0.8 | Binding of serum 6 to looped/cyclic peptides of protein M of SARS-CoV Urbani [1]: 0.7 | Binding of serum 37 to linear peptides of protein M of SARS-CoV Urbani [1]: 0.5 | Binding of serum 37 to looped/cyclic peptides of protein M of SARS-CoV Urbani [1]: 0.6 | Binding of serum 62 to linear peptides of protein M of SARS-CoV Urbani [1]: 0.5 | Binding of serum 62 to looped/cyclic peptides of protein M of SARS-CoV Urbani [1]: 0.5 | Binding of serum London to linear peptides of protein M of SARS-CoV Urbani [1]: 0.4 | Binding of serum London to looped/cyclic peptides of protein M of SARS-CoV Urbani [1]: 0.2 | Binding of serum SARS-green to linear peptides of protein M of SARS-CoV Urbani [1]: 0.3 | Binding of serum SARS-green to looped/cyclic peptides of protein M of SARS-CoV Urbani [1]: 0.2 | Binding of serum SARS-yellow to linear peptides of protein M of SARS-CoV Urbani [1]: 0.1 | Binding of serum SARS-yellow to looped/cyclic peptides of protein M of SARS-CoV Urbani [1]: 0.5 | Binding of Control Serum Blood-Bank to Looped peptides of the protein M of SARS-CoV Urbani [2]: 0.5 | Binding of Control serum Blood-bank to linear peptides of the protein M of SARS-CoV Urbani [2]: 0.7 | Binding of Control serum LUMC to linear peptides of the protein M of SARS-CoV Urbani [2]: 0.8 | Binding of Control serum LUMC to looped peptides of the protein M of SARS-CoV Urbani [2]: 0.6 | Rabbit serum linear peptides [3]: 0.2 | Rabbit serum looped peptides [3]: 0.5

From US20070128217A1 (priority 2003, published 2007)
